# Like-named read-outs stand apart in the source and are kept apart here.
# Assays:
# Format in all cases: biochemical
# bovine trypsin [1] = target: T1, bovine trypsin (Bos taurus, UniProt P00760); test: Inactivation rate of bovine trypsin, incubation method; details: for kobsd /[I] bovine trypsin: Table I, 0.1M Hepes, 0.01M CaCl2 pH 7.5, 25° C., 2% DMSO, substrate Z--Arg--SBzl, NI = no inhibition after 25 min; for kobs /[I] bovine trypsin: Table II, 0.13 μM trypsin, 0.25-42 μM inhibitor, 80 mM Hepes pH 7.5, 1 mM CaCl2, 8% DMSO, 25° C., NI = no inhibition
# T1 sequence (P00760 24-246): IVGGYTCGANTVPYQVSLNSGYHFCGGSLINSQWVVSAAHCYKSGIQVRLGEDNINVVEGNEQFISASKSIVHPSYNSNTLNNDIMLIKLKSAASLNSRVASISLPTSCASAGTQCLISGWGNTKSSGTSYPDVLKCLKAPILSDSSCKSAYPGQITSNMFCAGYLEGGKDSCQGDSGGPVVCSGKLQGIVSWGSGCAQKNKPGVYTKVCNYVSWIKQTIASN
# How it was run: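 Incubation method: trypsin pre-incubated with inhibitor (0.25-42 μM) at 25° C in 80 mM Hepes, 1 mM CaCl2, pH 7.5, 8% DMSO; aliquots withdrawn over time for residual activity on Z-Arg-SBzl thioester with DTNB or 4,4'-dithiodipyridine. Pseudo-first-order kobs from ln vt/vo versus time.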
# human granzyme A = target: T2, human granzyme A (Homo sapiens, UniProt P12544); test: Inactivation rate of human granzyme A, incubation method; details: Table I; 0.1M Hepes, 0.01M CaCl2 pH 7.5, 25° C., 7.6% DMSO, substrate Z--Arg--SBzl
# T2 sequence (P12544 29-262): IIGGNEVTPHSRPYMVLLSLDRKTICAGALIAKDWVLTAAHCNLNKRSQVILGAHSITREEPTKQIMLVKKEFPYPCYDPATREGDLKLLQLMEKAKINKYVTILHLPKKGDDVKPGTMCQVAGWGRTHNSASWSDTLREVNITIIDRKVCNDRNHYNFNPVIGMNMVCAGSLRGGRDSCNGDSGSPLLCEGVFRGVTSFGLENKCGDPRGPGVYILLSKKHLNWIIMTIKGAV
# How it was run: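 Inhibitor in DMSO added to enzyme (0.01-2.3 μM) in 0.1 M HEPES, 0.01 M CaCl2, pH 7.5, 25° C (DMSO 7.6% for granzyme A, 7.1% for granzyme K); residual activity on Z-Arg-SBzl with DTNB read at intervals. Kobs from ln vt/vo vs time plots.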
# human thrombin = target: T3, human thrombin (Homo sapiens, UniProt P00734); details: 25° C., NI = no inhibition
# T3 construct: bovine trypsin, human thrombin
# How it was run: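 Irreversible inactivation followed by incubation method at 25 °C: 0.07 μM thrombin with 0.25–42 μM inhibitor in 80 mM Hepes pH 7.5, 428 mM NaCl, 8% DMSO. Residual activity of withdrawn aliquots measured with thioester or 4-nitroanilide substrates; kobs from pseudo-first-order fits.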
# rat granzyme K = target: T4, rat granzyme K (Rattus norvegicus, UniProt P49864); test: Inactivation rate of rat granzyme K, incubation method; details: Table I; 0.1M Hepes, 0.01M CaCl2 pH 7.5, 25° C., 7.1% DMSO, substrate Z--Arg--SBzl; NI = no inhibition after 25 min of incubation
# T4 sequence (P49864 26-258): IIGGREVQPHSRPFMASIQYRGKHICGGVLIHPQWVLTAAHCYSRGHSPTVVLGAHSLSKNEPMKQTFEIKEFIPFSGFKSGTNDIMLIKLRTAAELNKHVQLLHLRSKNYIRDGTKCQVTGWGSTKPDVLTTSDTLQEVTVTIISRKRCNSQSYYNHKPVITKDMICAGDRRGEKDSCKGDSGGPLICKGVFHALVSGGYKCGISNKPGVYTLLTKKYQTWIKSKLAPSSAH
# Method: (§1) Inactivation rates of serine proteases by aryl diesters of peptidyl derivatives of α-aminoalkylphosphonates were measured by the incubation method. An aliquot of inhibitor (25 or 50 μl) in Me2 SO was added to a buffered enzyme solution (0.01-2.3 μM) to initiate the inactivation. Aliquots (50 μl) were withdrawn at various intervals and the residual enzymatic activity was measured. Me2 SO concentration in the reaction mixture was 8-12% (v/v). A 0.1 M HEPES, 0.01 M CaCl2, pH 7.5 buffer was utilized for trypsin and trypsin-like enzymes. A 0.1 M HEPES, 0.5 M NaCl, pH 7.5, was utilized for the other serine proteases. Peptide thioesters or peptide nitroanilides with the appropriate sequences were used as substrates for various serine proteases. All peptide thioesters hydrolysis rates were measured with the assay mixture containing 4,4'-dithiodipyridine {ε324 =19800 M^-1 cm^-1; Grasetti & Murray, Arch. Biochem. Biophys. 1967, 119, 41-48}. Peptide 4-nitroanilide hydrolysis was measured at 410 nm {ε410 =8800 M^-1 cm^-1; Erlanger et al., Arch. Biochem. Biophys. 1961, 95, 271-278}. First order inactivation rate constants (Kobs) were obtained from plots of In vt /vo vs time, and the correlation coefficients were greater then 0.98.
# (§2) ^a Inhibition constants were measured in 0.1M Hepes, 0.01M CaCl2
# (§3) pH 7.5 for trypsin, granzymes A, and K, and in 0.1M Hepes, 10% glycerol,
# (§4) 10 mM heparin, pH 7.5 for mast cell tryptase, and at 25° C. The
# (§5) reaction mixtures contained 2% DMSO for trypsin, 7.6% for granzyme A, and
# (§6) 7.1% for granzyme K and tryptase. The substrate was Z--Arg--SBzl for
# (§7) granzymes and trypsin, and Z--Arg--SBzl or Z--Lys--SBzl for tryptase in
# (§8) the presence of DTNB. The inhibitor # concentration ranged from 0.001 to
# (§9) ^b NI, no inhibition after 25 min of incubation with enzyme.
# rat granzyme A = test: Inactivation rate of rat granzyme A, incubation method; details: Table I; 0.1M Hepes, 0.01M CaCl2 pH 7.5, 25° C., 7.6% DMSO, substrate Z--Arg--SBzl
# Method: as §1, §2, §3, §4, §5, §6, §7, §8, §9
# mast cell tryptase = mast cell tryptase (Homo sapiens, UniProt Q15661); test: Inactivation rate of mast cell tryptase, incubation method; details: for kobsd /[I] mast cell tryptase: Table I, 0.1M Hepes, 10% glycerol, 10 mM heparin, pH 7.5, 25° C., 7.1% DMSO, NI = no inhibition after 25 min of incubation; for kobs /[I] mast cell tryptase: 25° C., NI = no inhibition
# mast cell tryptase, sequence (Q15661 31-275): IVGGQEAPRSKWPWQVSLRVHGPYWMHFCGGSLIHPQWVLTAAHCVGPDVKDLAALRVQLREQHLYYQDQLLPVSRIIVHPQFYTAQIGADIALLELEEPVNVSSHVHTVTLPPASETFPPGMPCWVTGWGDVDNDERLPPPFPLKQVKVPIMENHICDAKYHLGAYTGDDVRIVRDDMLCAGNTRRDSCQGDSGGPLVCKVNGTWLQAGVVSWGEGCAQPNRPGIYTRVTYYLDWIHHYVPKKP
# How it was run: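 Incubation method at 25 °C: 0.07 μM tryptase with 20–66 μM inhibitor in Hepes pH 7.5 containing heparin, glycerol and DMSO. Aliquots were withdrawn at intervals for residual activity on Z-Arg-SBzl or Z-Lys-SBzl with DTNB. Pseudo-first-order kobs came from ln(vt/v0) versus time.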
# bovine trypsin [2] = target: T1, bovine trypsin; test: Inactivation rate of bovine trypsin, incubation method; details: Table III; enzyme 0.06-0.5 μM, inhibitor 0.25-42 μM, 9% DMSO, 25° C.; NI = no inhibition
# [3] = Table II, 0.07 μM thrombin, 0.25-42 μM inhibitor, 80 mM Hepes pH 7.5, 428 mM NaCl, 8% DMSO
# [4] = Table II, 0.07 μM tryptase, 20-66 μM inhibitor, Hepes pH 7.5, heparin, 9% glycerol, 8% DMSO
# [5] = Table III, enzyme 0.06-0.5 μM, inhibitor 0.25-42 μM, 9% DMSO
Compound,kobsd /[I] bovine trypsin (bovine trypsin [1]),kobs /[I] bovine trypsin (bovine trypsin [1]),kobsd /[I] human granzyme A (human granzyme A),kobs /[I] human thrombin (human thrombin; [3]),kobsd /[I] rat granzyme K (rat granzyme K),kobsd /[I] rat granzyme A (rat granzyme A),kobsd /[I] mast cell tryptase (mast cell tryptase),kobs /[I] mast cell tryptase (mast cell tryptase; [4]),kobs /[I] mast cell tryptase (mast cell tryptase; [5]),kobs /[I] bovine trypsin (bovine trypsin [2]),kobs /[I] human thrombin (human thrombin; [5])
N=C(N)c1ccc(C(NC(=O)C(CCCCN)NC(=O)OCc2ccccc2)P(=O)(Oc2ccccc2)Oc2ccccc2)cc1 (mixture of isomers) [Cbz--Lys-(4-AmPhGly)^P (OPh)2],30 ± 1 M⁻¹ s⁻¹,30 ± 1 M⁻¹ s⁻¹,30 ± 1 M⁻¹ s⁻¹,88 ± 2 M⁻¹ s⁻¹,1 M⁻¹ s⁻¹,15 ± 1 M⁻¹ s⁻¹,,,,,
N=C(N)c1ccc(C(NS(=O)(=O)c2cccc3ccccc23)P(=O)(Oc2ccccc2)Oc2ccccc2)cc1 (racemic) [1-NpSO2-(4-AmPhGly)^P (OPh)2],170 ± 34 M⁻¹ s⁻¹,170 ± 34 M⁻¹ s⁻¹,330 ± 26 M⁻¹ s⁻¹,24 ± 3 M⁻¹ s⁻¹,,30 ± 1 M⁻¹ s⁻¹,10 M⁻¹ s⁻¹,10 ± 1 M⁻¹ s⁻¹,,,
C[C@H](NC(=O)OCc1ccccc1)C(=O)N[C@@H](C)C(=O)NC(c1ccc(C(=N)N)cc1)P(=O)(Oc1ccccc1)Oc1ccccc1 (some centres unmarked) [Cbz--Ala--Ala-(4-AmPhGly)^P (OPh)2],3620 ± 588 M⁻¹ s⁻¹,"3,620 ± 588 M^-1 s^-1",820 ± 29 M⁻¹ s⁻¹,"3,030 ± 222 M^-1 s^-1",5 M⁻¹ s⁻¹,480 ± 27 M⁻¹ s⁻¹,2 M⁻¹ s⁻¹,2 ± 0 M⁻¹ s⁻¹,,,
CC(C)C(NC(=O)CCC(=O)O)C(=O)N1CCCC1C(=O)NC(CCCCN)P(=O)(Oc1ccccc1)Oc1ccccc1 (mixture of isomers) [Suc--Val--Pro--Lys^P (OPh)2],,,,,,,,,0.6 M⁻¹ s⁻¹,416 ± 28 M⁻¹ s⁻¹,3.4 ± 0.4 M⁻¹ s⁻¹
"Cl.N=C(N)c1ccc(C(NC(=O)C=Cc2ccco2)P(=O)(Oc2ccccc2)Oc2ccccc2)cc1 (centres unmarked) [(2-Furyl)acryloyl-(4-AmPhGly)^P (OPh)2, Diphenyl N-(3-(2-Furyl)acryloyl)amino(4-amidinophenyl)methanephosphonate Hydrochloride]",360 ± 28 M⁻¹ s⁻¹,360 ± 28 M⁻¹ s⁻¹,1740 ± 41 M⁻¹ s⁻¹,15 ± 1 M⁻¹ s⁻¹,32 M⁻¹ s⁻¹,1740 ± 237 M⁻¹ s⁻¹,,,,,
"Cl.N=C(N)c1ccc(C(NC(=O)c2ccccc2Oc2ccccc2)P(=O)(Oc2ccccc2)Oc2ccccc2)cc1 (centres unmarked) [2-Phenoxybenzoyl-(4-AmPhGly)^P (OPh)2, Diphenyl N-(2-Phenoxybenzoyl)amino(4-amidinophenyl)methanephosphonate Hydrochloride]",670 ± 53 M⁻¹ s⁻¹,670 ± 53 M⁻¹ s⁻¹,540 ± 3 M⁻¹ s⁻¹,270 ± 20 M⁻¹ s⁻¹,1 M⁻¹ s⁻¹,340 ± 1 M⁻¹ s⁻¹,0.4 M⁻¹ s⁻¹,0.4 M⁻¹ s⁻¹,,,
"Cl.N=C(N)c1ccc(C(NC(=O)c2cccc(Oc3ccccc3)c2)P(=O)(Oc2ccccc2)Oc2ccccc2)cc1 (centres unmarked) [3-Phenoxybenzoyl-(4-AmPhGly)^P (OPh)2, Diphenyl N-(3-Phenoxybenzoyl)amino(4-amidinophenyl)methanephosphonate Hydrochloride]",50 ± 2 M⁻¹ s⁻¹,50 ± 2 M⁻¹ s⁻¹,340 ± 53 M⁻¹ s⁻¹,200 ± 8 M⁻¹ s⁻¹,1 M⁻¹ s⁻¹,470 ± 14 M⁻¹ s⁻¹,,,,,
CC(NC(=O)OCc1ccccc1)C(=O)NC(c1ccc(C(=N)N)cc1)P(=O)(Oc1ccccc1)Oc1ccccc1 (mixture of isomers) [Cbz--Ala-(4-AmPhGly)^P (OPh)2],1850 ± 85 M⁻¹ s⁻¹,"1,850 ± 85 M^-1 s^-1",1670 ± 11 M⁻¹ s⁻¹,750 ± 18 M⁻¹ s⁻¹,,1270 ± 85 M⁻¹ s⁻¹,0.8 M⁻¹ s⁻¹,0.8 M⁻¹ s⁻¹,,,
N=C(N)c1ccc(C(NC(=O)Oc2cccc3ccccc23)P(=O)(Oc2ccccc2)Oc2ccccc2)cc1 (centres unmarked) [1-Naphthyloxycarbonyl-(4-AmPhGly)^P (OPh)2],30 ± 1 M⁻¹ s⁻¹,30 ± 1 M⁻¹ s⁻¹,160 ± 2 M⁻¹ s⁻¹,30 ± 2 M⁻¹ s⁻¹,12 M⁻¹ s⁻¹,90 ± 9 M⁻¹ s⁻¹,,,,,
CC(C)C(NC(=O)CCC(=O)O)C(=O)N1CCCC1C(=O)NC(CCCCCN)P(=O)(Oc1ccccc1)Oc1ccccc1 (mixture of isomers) [Suc--Val--Pro-HomoLys^P (OPh)2],,,,,,,,,4.1 ± 0.4 M⁻¹ s⁻¹,51 ± 10 M⁻¹ s⁻¹,1.6 ± 0.3 M⁻¹ s⁻¹
Cl.N=C(N)c1ccc(C(NC(=O)/C=C/c2cccnc2)P(=O)(Oc2ccccc2)Oc2ccccc2)cc1 (stereo not drawn) [Diphenyl N-(trans-3-(3-Pyridyl)acryloyl)amino(4-amidinophenyl)methanephosphonate Hydrochloride],,,5 M⁻¹ s⁻¹,2 M⁻¹ s⁻¹,3 M⁻¹ s⁻¹,1 M⁻¹ s⁻¹,,,,,
CC(C)(C)OC(=O)NC(CC(N)=O)C(=O)NC(CCCCN)P(=O)(Oc1ccccc1)Oc1ccccc1 (mixture of isomers) [Boc--Asn--Lys^P (OPh)2],,,,,,,,,,3 M⁻¹ s⁻¹,
